# Test results as given in ChEMBL document CHEMBL5154811, “Discovery of SPH5030, a Selective, Potent, and Irreversible Tyrosine Kinase Inhibitor for HER2-Amplified and HER2-Mutant Cancer Treatment” (J Med Chem, 2022).
# Tested on: not listed separately
# Test: AUC (0 to t) in Sprague-Dawley rat at 10 mg/kg, po measured upto 1440 mins by LC/MS/MS analysis
# Format: ADME, organism-based
# Set-up: dose 10 mg/kg, time < 1440 min, route po
# Conditions: in vivo
row,AUC(0-t) at 24 h [ng·h/mL],Structure (SMILES)
1,2170,CCOc1cc2ncnc(Nc3ccc(Oc4cc5nncn5cn4)c(C)c3)c2cc1NC(=O)/C=C/[C@H]1CCCN1C

# Tested on: NUGC-4
# Test: Antiproliferative activity against human NUGC-4 cells assessed as cell growth inhibition incubated for 72 hrs by Celltiter-Glo assay
# Format: functional, cell-based
# Conditions: NUGC-4, 72 h
row,Structure (SMILES),IC50 [nM]
1,CCOc1cc2ncc(C#N)c(Nc3ccc(OCc4ccccn4)c(Cl)c3)c2cc1NC(=O)/C=C/CN(C)C [NERATINIB],38.1

# Tested on: NCI-H441
# Test: Antiproliferative activity against human NCI-H441 cells assessed as cell growth inhibition incubated for 72 hrs by Celltiter-Glo assay
# Format: functional, cell-based
# Conditions: NCI-H441, 72 h
row,IC50 [nM],Structure (SMILES)
1,1280,CCOc1cc2ncc(C#N)c(Nc3ccc(OCc4ccccn4)c(Cl)c3)c2cc1NC(=O)/C=C/CN(C)C [NERATINIB]

# Tested on: not listed separately
# Test: Tmax in Sprague-Dawley rat at 10 mg/kg, po measured upto 1440 mins by LC/MS/MS analysis
# Format: ADME, organism-based
# Conditions: in vivo
row,Tmax [h],Structure (SMILES)
1,4,CCOc1cc2ncnc(Nc3ccc(Oc4cc5nncn5cn4)c(C)c3)c2cc1NC(=O)/C=C/[C@H]1CCCN1C

# Tested on: ES-2
# Test: Antiproliferative activity against human ES2 cells assessed as cell growth inhibition incubated for 72 hrs by Celltiter-Glo assay
# Format: functional, cell-based
# Conditions: ES-2, 72 h
row,Structure (SMILES),IC50 [nM]
1,CCOc1cc2ncc(C#N)c(Nc3ccc(OCc4ccccn4)c(Cl)c3)c2cc1NC(=O)/C=C/CN(C)C [NERATINIB],788

# Biological target: Receptor tyrosine-protein kinase erbB-2 (Homo sapiens, UniProt P04626)
# Sequence (P04626 whole entry): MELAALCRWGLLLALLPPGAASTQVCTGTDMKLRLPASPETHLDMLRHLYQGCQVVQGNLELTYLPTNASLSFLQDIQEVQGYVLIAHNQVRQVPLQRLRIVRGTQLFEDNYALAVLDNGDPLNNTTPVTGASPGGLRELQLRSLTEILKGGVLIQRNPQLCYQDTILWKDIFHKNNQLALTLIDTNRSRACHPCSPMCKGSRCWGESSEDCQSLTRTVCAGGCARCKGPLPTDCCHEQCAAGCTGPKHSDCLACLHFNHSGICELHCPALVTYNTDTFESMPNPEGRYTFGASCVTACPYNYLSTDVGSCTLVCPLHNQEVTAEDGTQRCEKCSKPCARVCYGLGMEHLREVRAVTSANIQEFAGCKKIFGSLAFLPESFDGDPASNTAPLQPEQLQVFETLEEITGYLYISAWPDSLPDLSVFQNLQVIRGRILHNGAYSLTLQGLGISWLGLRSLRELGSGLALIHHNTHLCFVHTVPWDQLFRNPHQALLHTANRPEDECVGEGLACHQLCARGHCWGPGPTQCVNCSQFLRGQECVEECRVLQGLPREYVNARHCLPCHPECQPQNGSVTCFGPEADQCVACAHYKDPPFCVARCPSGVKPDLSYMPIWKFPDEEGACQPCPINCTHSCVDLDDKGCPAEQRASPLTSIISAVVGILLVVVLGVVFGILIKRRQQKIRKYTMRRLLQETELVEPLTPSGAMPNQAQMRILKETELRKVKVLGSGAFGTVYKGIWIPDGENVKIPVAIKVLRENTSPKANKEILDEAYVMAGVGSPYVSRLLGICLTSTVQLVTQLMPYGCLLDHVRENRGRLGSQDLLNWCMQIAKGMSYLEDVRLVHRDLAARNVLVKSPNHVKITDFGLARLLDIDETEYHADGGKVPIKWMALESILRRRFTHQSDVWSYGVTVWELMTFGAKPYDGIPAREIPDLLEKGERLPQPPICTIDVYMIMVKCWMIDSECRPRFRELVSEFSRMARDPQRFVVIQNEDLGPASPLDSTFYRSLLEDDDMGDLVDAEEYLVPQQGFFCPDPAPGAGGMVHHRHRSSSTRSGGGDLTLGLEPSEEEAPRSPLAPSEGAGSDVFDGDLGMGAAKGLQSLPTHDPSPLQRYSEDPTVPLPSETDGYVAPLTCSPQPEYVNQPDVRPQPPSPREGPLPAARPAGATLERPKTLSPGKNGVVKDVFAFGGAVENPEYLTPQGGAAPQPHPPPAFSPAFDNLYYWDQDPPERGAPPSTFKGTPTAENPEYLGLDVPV
# Test: Inhibition of wild type human GST-tagged HER2 (676 to end residues) expressed in baculovirus infected Sf9 cells incubated for 30 mins in presence of ATP by HTRF analysis
# Conditions: not given
row,IC50 [nM],Structure (SMILES)
1,1.67,CCOc1cc2ncnc(Nc3ccc(Oc4cc5nncn5cn4)c(C)c3)c2cc1NC(=O)/C=C/[C@H]1CCCN1C

# Tested on: BT-474
# Test: Antiproliferative activity against human BT-474 cells assessed as inhibition of cell growth incubated for 72 hrs by Celltiter-Glo assay
# Format: functional, cell-based
# Conditions: BT-474, 72 h
row,IC50 [nM],Structure (SMILES)
1,2.06,CCOc1cc2ncc(C#N)c(Nc3ccc(OCc4ccccn4)c(Cl)c3)c2cc1NC(=O)/C=C/CN(C)C [NERATINIB]
2,2.13,CCOc1cc2ncnc(Nc3ccc(Oc4cc5nncn5cn4)c(C)c3)c2cc1NC(=O)/C=C/[C@H]1CCCN1C

# Tested on: NCI-N87
# Test: Antiproliferative activity against human NCI-N87 cells assessed as inhibition of cell growth incubated for 72 hrs by Celltiter-Glo assay
# Format: functional, cell-based
# Conditions: NCI-N87, 72 h
row,Structure (SMILES),IC50 [nM]
1,CCOc1cc2ncc(C#N)c(Nc3ccc(OCc4ccccn4)c(Cl)c3)c2cc1NC(=O)/C=C/CN(C)C [NERATINIB],0.64
2,CCOc1cc2ncnc(Nc3ccc(Oc4cc5nncn5cn4)c(C)c3)c2cc1NC(=O)/C=C/[C@H]1CCCN1C,1.12

# Tested on: MFE-280
# Test: Antiproliferative activity against human MFE-280 cells assessed as cell growth inhibition incubated for 72 hrs by Celltiter-Glo assay
# Format: functional, cell-based
# Conditions: MFE-280, 72 h
row,Structure (SMILES),IC50 [nM]
1,CCOc1cc2ncc(C#N)c(Nc3ccc(OCc4ccccn4)c(Cl)c3)c2cc1NC(=O)/C=C/CN(C)C [NERATINIB],1290

# Tested on: not listed separately
# Test: Volume of distribution at steady state in Sprague-Dawley rat at 3 mg/kg, iv measured upto 1440 mins by LC/MS/MS analysis
# Format: ADME, organism-based
# Conditions: in vivo, read-out: Vdss
row,Vd [L/kg],Structure (SMILES)
1,10.6,CCOc1cc2ncnc(Nc3ccc(Oc4cc5nncn5cn4)c(C)c3)c2cc1NC(=O)/C=C/[C@H]1CCCN1C

# Tested on: not listed separately
# Test: Antiproliferative activity against human KM12-Luc cells assessed as cell growth inhibition incubated for 72 hrs by Celltiter-Glo assay
# Format: functional, cell-based
# Conditions: not given
row,Structure (SMILES),IC50 [nM]
1,CCOc1cc2ncc(C#N)c(Nc3ccc(OCc4ccccn4)c(Cl)c3)c2cc1NC(=O)/C=C/CN(C)C [NERATINIB],1730

# Tested on: not listed separately
# Test: Oral bioavailability in ICR mouse at 10 mg/kg measured upto 1440 mins by LC/MS/MS analysis
# Format: ADME, organism-based
# Conditions: in vivo
row,bioavailability [%],Structure (SMILES)
1,22.6,CCOc1cc2ncnc(Nc3ccc(Oc4cc5nncn5cn4)c(C)c3)c2cc1NC(=O)/C=C/[C@H]1CCCN1C

# Tested on: MDA-MB-468
# Test: Antiproliferative activity against human MDA-MB-468 cells overexpressing wild type EGFR assessed as cell growth inhibition incubated for 72 hrs by Celltiter-Glo assay
# Format: functional, cell-based
# Conditions: MDA-MB-468, 72 h
row,IC50 [nM],Structure (SMILES)
1,406,CCOc1cc2ncc(C#N)c(Nc3ccc(OCc4ccccn4)c(Cl)c3)c2cc1NC(=O)/C=C/CN(C)C [NERATINIB]

# Tested on: not listed separately
# Test: Half life in ICR mouse at 10 mg/kg, po measured upto 1440 mins by LC/MS/MS analysis
# Format: ADME, organism-based
# Conditions: in vivo
row,half-life [h],Structure (SMILES)
1,3.07,CCOc1cc2ncnc(Nc3ccc(Oc4cc5nncn5cn4)c(C)c3)c2cc1NC(=O)/C=C/[C@H]1CCCN1C

# Tested on: not listed separately
# Test: Half life in Sprague-Dawley rat at 10 mg/kg, po measured upto 1440 mins by LC/MS/MS analysis
# Format: ADME, organism-based
# Conditions: in vivo
row,half-life [h],Structure (SMILES)
1,4.32,CCOc1cc2ncnc(Nc3ccc(Oc4cc5nncn5cn4)c(C)c3)c2cc1NC(=O)/C=C/[C@H]1CCCN1C

# Tested on: not listed separately
# Test: Clearance in ICR mouse at 3 mg/kg, iv measured upto 1440 mins by LC/MS/MS analysis
# Format: ADME, organism-based
# Conditions: in vivo
row,clearance [mL/min/kg],Structure (SMILES)
1,22,CCOc1cc2ncnc(Nc3ccc(Oc4cc5nncn5cn4)c(C)c3)c2cc1NC(=O)/C=C/[C@H]1CCCN1C

# Tested on: not listed separately
# Test: Oral bioavailability in Sprague-Dawley rat at 10 mg/kg measured upto 1440 mins by LC/MS/MS analysis
# Format: ADME, organism-based
# Conditions: in vivo
row,bioavailability [%],Structure (SMILES)
1,47.5,CCOc1cc2ncnc(Nc3ccc(Oc4cc5nncn5cn4)c(C)c3)c2cc1NC(=O)/C=C/[C@H]1CCCN1C

# Tested on: not listed separately
# Test: Metabolic stability in human liver microsomes assessed as intrinsic clearance at 1 uM preincubated for 5 mins followed by NADPH addition by LC-MS/MS analysis
# Format: ADME, Microsome
# Conditions: read-out: CLH
row,microsomal CLint at 1 µM [µL/min/mg],Structure (SMILES)
1,1.81,CCOc1cc2ncnc(Nc3ccc(Oc4cc5nncn5cn4)c(C)c3)c2cc1NC(=O)/C=C/[C@H]1CCCN1C

# Biological target: Epidermal growth factor receptor (Homo sapiens, UniProt P00533)
# Sequence (P00533 whole entry, the tested form may be a part): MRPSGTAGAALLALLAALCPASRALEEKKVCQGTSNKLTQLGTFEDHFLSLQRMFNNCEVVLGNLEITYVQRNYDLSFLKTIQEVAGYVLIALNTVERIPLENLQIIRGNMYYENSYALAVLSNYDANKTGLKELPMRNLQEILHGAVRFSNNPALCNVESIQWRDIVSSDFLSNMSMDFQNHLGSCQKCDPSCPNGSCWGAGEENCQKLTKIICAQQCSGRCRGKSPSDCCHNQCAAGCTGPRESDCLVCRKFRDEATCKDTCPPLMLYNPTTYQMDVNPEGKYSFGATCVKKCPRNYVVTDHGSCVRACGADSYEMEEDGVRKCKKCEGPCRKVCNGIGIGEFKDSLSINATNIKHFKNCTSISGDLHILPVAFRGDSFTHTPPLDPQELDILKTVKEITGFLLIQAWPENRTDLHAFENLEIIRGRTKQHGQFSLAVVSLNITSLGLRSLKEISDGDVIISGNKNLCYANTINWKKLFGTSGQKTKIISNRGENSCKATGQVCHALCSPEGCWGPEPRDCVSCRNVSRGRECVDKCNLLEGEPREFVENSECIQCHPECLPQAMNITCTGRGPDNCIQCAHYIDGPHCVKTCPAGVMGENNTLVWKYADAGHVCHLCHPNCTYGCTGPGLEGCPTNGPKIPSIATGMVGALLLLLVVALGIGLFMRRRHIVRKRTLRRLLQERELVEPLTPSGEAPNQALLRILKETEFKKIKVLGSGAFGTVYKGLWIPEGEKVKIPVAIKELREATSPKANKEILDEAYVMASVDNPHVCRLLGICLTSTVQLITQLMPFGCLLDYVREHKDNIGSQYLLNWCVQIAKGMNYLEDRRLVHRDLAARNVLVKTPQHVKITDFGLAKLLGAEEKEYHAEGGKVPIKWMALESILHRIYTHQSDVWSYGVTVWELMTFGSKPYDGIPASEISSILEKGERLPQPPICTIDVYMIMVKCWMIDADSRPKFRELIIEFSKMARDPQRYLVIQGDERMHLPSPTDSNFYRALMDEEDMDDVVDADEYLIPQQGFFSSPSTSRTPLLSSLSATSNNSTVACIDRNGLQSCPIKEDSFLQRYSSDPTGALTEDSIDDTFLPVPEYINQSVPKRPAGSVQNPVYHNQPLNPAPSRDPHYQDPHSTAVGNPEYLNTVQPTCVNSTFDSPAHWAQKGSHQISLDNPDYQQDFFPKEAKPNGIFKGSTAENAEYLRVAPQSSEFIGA
# Test: Inhibition of wild type human N-terminal GST tagged EGFR (669 to 1210 residues) expressed in Sf21 insect cells incubated for 30 mins in presence of ATP by HTRF analysis
# Conditions: not given
row,IC50 [nM],Structure (SMILES)
1,1.36,CCOc1cc2ncnc(Nc3ccc(Oc4cc5nncn5cn4)c(C)c3)c2cc1NC(=O)/C=C/[C@H]1CCCN1C

# Tested on: not listed separately
# Test: AUC (0 to t) in ICR mouse at 10 mg/kg, po measured upto 1440 mins by LC/MS/MS analysis
# Format: ADME, organism-based
# Set-up: time < 1440 min, dose 10 mg/kg, route po
# Conditions: in vivo
row,AUC(0-t) at 24 h [ng·h/mL],Structure (SMILES)
1,1700,CCOc1cc2ncnc(Nc3ccc(Oc4cc5nncn5cn4)c(C)c3)c2cc1NC(=O)/C=C/[C@H]1CCCN1C

# Tested on: SK-BR-3
# Test: Antiproliferative activity against human SK-BR-3 cells overexpressing wild type HER2 assessed as cell growth inhibition incubated for 72 hrs by Celltiter-Glo assay
# Format: functional, cell-based
# Conditions: SK-BR-3, 72 h
row,IC50 [nM],Structure (SMILES)
1,10.3,CCOc1cc2ncc(C#N)c(Nc3ccc(OCc4ccccn4)c(Cl)c3)c2cc1NC(=O)/C=C/CN(C)C [NERATINIB]

# Tested on: not listed separately
# Test: Metabolic stability in human liver microsomes assessed as half life at 1 uM preincubated for 5 mins followed by NADPH addition by LC-MS/MS analysis
# Format: ADME, Microsome
# Conditions: not given
row,half-life at 1 µM [h],Structure (SMILES)
1,12.9,CCOc1cc2ncnc(Nc3ccc(Oc4cc5nncn5cn4)c(C)c3)c2cc1NC(=O)/C=C/[C@H]1CCCN1C

# Tested on: not listed separately
# Test: Clearance in Sprague-Dawley rat at 3 mg/kg, iv measured upto 1440 mins by LC/MS/MS analysis
# Format: ADME, organism-based
# Conditions: in vivo
row,clearance [mL/min/kg],Structure (SMILES)
1,55.5,CCOc1cc2ncnc(Nc3ccc(Oc4cc5nncn5cn4)c(C)c3)c2cc1NC(=O)/C=C/[C@H]1CCCN1C

# Tested on: COLO-678
# Test: Antiproliferative activity against human COLO-678 cells assessed as cell growth inhibition incubated for 72 hrs by Celltiter-Glo assay
# Format: functional, cell-based
# Conditions: COLO-678, 72 h
row,IC50 [nM],Structure (SMILES)
1,694,CCOc1cc2ncc(C#N)c(Nc3ccc(OCc4ccccn4)c(Cl)c3)c2cc1NC(=O)/C=C/CN(C)C [NERATINIB]

# Tested on: not listed separately
# Test: Cmax in Sprague-Dawley rat at 10 mg/kg, po measured upto 1440 mins by LC/MS/MS analysis
# Format: ADME, organism-based
# Set-up: time < 1440 min, dose 10 mg/kg, route po
# Conditions: in vivo
row,Cmax [ng/mL],Structure (SMILES)
1,280,CCOc1cc2ncnc(Nc3ccc(Oc4cc5nncn5cn4)c(C)c3)c2cc1NC(=O)/C=C/[C@H]1CCCN1C

# Tested on: NCI-N87
# Test: Antitumor activity against human NCI-N87 cells xenografted in BALB/c nude mouse assessed as tumor growth inhibition at 20 mg/kg/day, po administered once daily for 21 days relative to control
# Format: functional
# Conditions: NCI-N87, 504 h, time 21 day, read-out: TGI
row,Structure (SMILES),inhibition in vivo at 20 mg/kg/day [%]
1,CCOc1cc2ncc(C#N)c(Nc3ccc(OCc4ccccn4)c(Cl)c3)c2cc1NC(=O)/C=C/CN(C)C [NERATINIB],112

# Tested on: BT-474
# Test: Antitumor activity against human BT-474 cells xenografted in BALB/c nude mouse assessed as tumor growth inhibition at 20 mg/kg/day, po administered once daily for 21 days relative to control
# Format: functional
# Conditions: BT-474, 504 h, time 21 day, read-out: TGI
row,Structure (SMILES),inhibition in vivo at 20 mg/kg/day [%]
1,CCOc1cc2ncc(C#N)c(Nc3ccc(OCc4ccccn4)c(Cl)c3)c2cc1NC(=O)/C=C/CN(C)C [NERATINIB],119

# Tested on: not listed separately
# Test: Half life in Sprague-Dawley rat at 3 mg/kg, iv measured upto 1440 mins by LC/MS/MS analysis
# Format: ADME, organism-based
# Conditions: in vivo
row,half-life [h],Structure (SMILES)
1,2.09,CCOc1cc2ncnc(Nc3ccc(Oc4cc5nncn5cn4)c(C)c3)c2cc1NC(=O)/C=C/[C@H]1CCCN1C

# Tested on: BaF3
# Test: Antitumor activity against mouse BaF3 cells harbouring HER2 A775_G776insYVMA mutant xenografted in BALB/c nude mouse assessed as tumor growth inhibition at 20 mg/kg, po qd measured for 13 days relative to control
# Format: functional
# Conditions: BaF3, 312 h, time 13 day, read-out: TGI
row,Structure (SMILES),inhibition in vivo at 20 mg/kg [%]
1,CCOc1cc2ncc(C#N)c(Nc3ccc(OCc4ccccn4)c(Cl)c3)c2cc1NC(=O)/C=C/CN(C)C [NERATINIB],56

# Tested on: not listed separately
# Test: Cmax in ICR mouse at 10 mg/kg, po measured upto 1440 mins by LC/MS/MS analysis
# Format: ADME, organism-based
# Set-up: dose 10 mg/kg, time < 1440 min, route po
# Conditions: in vivo
row,Cmax [ng/mL],Structure (SMILES)
1,400,CCOc1cc2ncnc(Nc3ccc(Oc4cc5nncn5cn4)c(C)c3)c2cc1NC(=O)/C=C/[C@H]1CCCN1C

# Tested on: not listed separately
# Test: Tmax in ICR mouse at 10 mg/kg, po measured upto 1440 mins by LC/MS/MS analysis
# Format: ADME, organism-based
# Conditions: in vivo
row,Tmax [h],Structure (SMILES)
1,1.67,CCOc1cc2ncnc(Nc3ccc(Oc4cc5nncn5cn4)c(C)c3)c2cc1NC(=O)/C=C/[C@H]1CCCN1C

# Tested on: not listed separately
# Test: Volume of distribution at steady state in ICR mouse at 3 mg/kg, iv measured upto 1440 mins by LC/MS/MS analysis
# Format: ADME, organism-based
# Conditions: in vivo, read-out: Vdss
row,Vd [L/kg],Structure (SMILES)
1,2.79,CCOc1cc2ncnc(Nc3ccc(Oc4cc5nncn5cn4)c(C)c3)c2cc1NC(=O)/C=C/[C@H]1CCCN1C

# Tested on: not listed separately
# Test: Half life in ICR mouse at 3 mg/kg, iv measured upto 1440 mins by LC/MS/MS analysis
# Format: ADME, organism-based
# Conditions: in vivo
row,half-life [h],Structure (SMILES)
1,4.38,CCOc1cc2ncnc(Nc3ccc(Oc4cc5nncn5cn4)c(C)c3)c2cc1NC(=O)/C=C/[C@H]1CCCN1C
